Assay: method code SF-AS, from Rouot, B.; Leclerc, G.; Wermuth, C.; Miesch, F.; Schwartz, J. (1977). Structure-activity relations and problems related to the mechanism of action of clonidine.Journal de Pharmacologie, 8(1)95-106.

Cc1ccc(Cl)cc1NC1=NCCN1
logP: 1.8

Oc1cc(Cl)c(NC2=NCCN2)c(Cl)c1
logP: 1.52

FC(F)(F)c1ccccc1NC1=NCCN1
logP: 1.42

COc1cc(C)ccc1NC1=NCCN1
logP: 1.64

Clc1ccc(NC2=NCCN2)c(Cl)c1
logP: 1.96

Brc1ccc(NC2=NCCN2)cc1
logP: 1.75

Cc1cccc(C)c1NC1=NCCN1
logP: 1.45

Cc1cccc(Cl)c1NC1=NCCN1
logP: 1.41

COc1ccc(OC)c(NC2=NCCN2)c1
logP: 0.97

Fc1cccc(F)c1N=C1NCCN1
logP: 1.06

c1ccc(NC2=NCCN2)cc1
logP: 1.01

Cc1cc(Cl)ccc1NC1=NCCN1
logP: 1.77

Cc1ccc(NC2=NCCN2)c(Cl)c1
logP: 1.87

COc1cc(OC)c(NC2=NCCN2)cc1Cl
logP: 1.38

CC(C)c1cccc(C(C)C)c1NC1=NCCN1
logP: 3.04

Brc1cccc(Br)c1NC1=NCCN1
logP: 1.73

From the SangsterLogP compilation
